US11457626B2, “Method for impairing a Cassie-Baxter state” (priority 2016, dated 2022)

Columns and labels:
[1] = cited from earlier work
[2] = acidity relative to oxalic acid; type: physicochemical
Text: Further, their respective salts, sodium dipicolinate and monosodium phosphate both have essentially neutral pHs and both are known, powerful natural coordination complex chelators that prefer calcium over sodium in all but basic pH environments. […] This calcium coordination effect is why acidic anions dipicolinic acid and phosphoric acid, as well as their respective salts, are commonly used detergent ingredients (European Patent No. EP 0358472 A2, Detergent Compositions). In addition, phosphates (the phosphoric acid salts) are so safe and non-toxic that they are used as food additives and as emulsifiers.

PLA2 = details: anti-inflammatory; cited from earlier work
[3] = solubility / dispersibility of dipicolinic acid in vehicles; type: physicochemical
Text: As natural emulsifiers, the use of phosphates also greatly expands the possible range of usable solution/suspensions available for the present invention to concomitantly include, along with these phosphates, other arthropod plastron chemical degraders, such as carboxylic, dipicolinic, oxalic acids and their respective salts, as well as terpenes and low molecular weight non-polar alkanes, including cyclic alkanes. Dipicolinic acid is also dually beneficially to this plastron degrading effect because it is also a potent anti-inflammatory PLA2 inhibitor and thus would help reduce the concomitant skin inflammation associated with demodex infestations (U.S. Pat. No. 6,127,393, Antiproliferative, antiinfective, antiinflammatory, autologous immunization agent and method). […] However, the inventor has discovered that dipicolinic acid is soluble in glycerin, a common skin product ingredient, and is colloidal in low molecular weight non-polar solutions and in hyaluronic acid (a very high molecular weight […] common to the eye).

demodex mites = details: mineral oil as control and solvent; cited from earlier work

| SMILES | solubility in water [1] | times less acidic than oxalic acid [2] | PLA2 inhibition (PLA2) | solubility in glycerin ([3]; glycerin) | state in hyaluronic acid ([3]; hyaluronic acid) | state in low molecular weight non-polar solutions ([3]; low molecular weight non-polar solutions) | activity against demodex mites among tea tree oil ingredients (demodex mites) |
| --- | --- | --- | --- | --- | --- | --- | --- |
| O=C(O)c1cccc(C(=O)O)n1 [dipicolinic acid] | limited solubility | about 10 times | potent | soluble | colloidal | colloidal |  |
| O=P(O)(O)O [phosphoric acid] |  | about 10 times |  |  |  |  |  |
| CC1=CCC(O)(C(C)C)CC1 (centres unmarked) [terpinen-4-ol] |  |  |  |  |  |  | most active ingredient |
